Like-named read-outs stand apart in the source and are kept apart here.
Assays:
NMuMG cells = assay: High-content microscopy EMT screen in TGFβ-treated NMuMG cells (FA, SF, FN, cell count); assay type: cell-based, murine
Py2T cells = assay: High-content microscopy EMT assay in TGFβ-treated Py2T breast cancer cells; assay type: cell-based, murine
ROCK = ROCK cellular assay (MLC Thr18/Ser19 phosphorylation ELISA in A7r5 cells); assay type: cell-based, rat; details: 90 min compound
ROCK1 = ROCK1 (Homo sapiens, UniProt Q13464); assay: Biochemical kinase profiling (33PanQinase radiometric assay)
ROCK2 = ROCK2 (Homo sapiens, UniProt O75116); assay: as above
PDGFRB = PDGFRB (Homo sapiens, UniProt P09619); assay: as above
SRC = SRC (Homo sapiens, UniProt P12931); assay: as above
TGFBR1 = target: T1, TGFBR1 (Homo sapiens, UniProt P36897); assay: as above
T1 sequence (P36897 34-503): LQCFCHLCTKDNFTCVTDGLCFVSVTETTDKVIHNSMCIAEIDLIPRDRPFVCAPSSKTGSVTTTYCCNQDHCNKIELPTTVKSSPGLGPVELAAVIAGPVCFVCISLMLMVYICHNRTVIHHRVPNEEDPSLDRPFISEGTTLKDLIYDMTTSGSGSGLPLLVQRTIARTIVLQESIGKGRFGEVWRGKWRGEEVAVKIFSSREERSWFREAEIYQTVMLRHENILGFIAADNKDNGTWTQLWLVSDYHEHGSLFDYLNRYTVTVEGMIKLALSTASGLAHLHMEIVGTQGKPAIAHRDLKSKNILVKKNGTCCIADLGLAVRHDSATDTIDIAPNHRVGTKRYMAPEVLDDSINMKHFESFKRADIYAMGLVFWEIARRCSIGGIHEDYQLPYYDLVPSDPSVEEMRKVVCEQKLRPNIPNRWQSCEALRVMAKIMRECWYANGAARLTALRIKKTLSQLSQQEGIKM

TGFBR2 = TGFBR2 (Homo sapiens, UniProt P37173); assay: as above
FGFR2 = FGFR2 (Homo sapiens, UniProt P21802); assay: as above; details: read-out: FGFR2 IC50; ATP at apparent Km
FGFR4 = FGFR4 (Homo sapiens, UniProt P22455); assay: as above; details: read-out: FGFR4 IC50; ATP at apparent Km
PDGFRA = PDGFRA (Homo sapiens, UniProt P16234); assay: as above; details: read-out: PDGFRA IC50; ATP at apparent Km
[1] = NMuMG, TGFβ1 2 ng/ml plus compound, 4 days; parameter decreased by 50%; read-out: FA IC50 (focal adhesion formation)
[2] = NMuMG, TGFβ1 2 ng/ml plus compound, 4 days; parameter decreased by 50%; read-out: FN IC50 (fibronectin patch formation)
[3] = NMuMG, TGFβ1 2 ng/ml plus compound, 4 days; parameter decreased by 50%; read-out: SF IC50 (stress fibers)
[4] = NMuMG; cell count decreased by 50% compared to DMSO control; read-out: Tox IC50
[5] = NMuMG; cell count increased by 50% compared to 100% with 10 μM SB-431542; read-out: CCI IC50 (cell count increase)
[6] = NMuMG; compared to reference 10 μM SB-431542 = 100%
[7] = NMuMG; mean of IC50 values obtained for FA, SF, FN; read-out: EMT (FA/SF/FN) combined IC50
[8] = Py2T, TGFβ plus compound, 4 days
[9] = Py2T; cell count decreased by 50% compared to DMSO control; read-out: Tox IC50
[10] = Py2T; compared to 10 μM SB-431542; read-out: CCI IC50 (cell count increase)
[11] = Py2T; compared to reference 10 μM SB-431542 = 100%
[12] = Mus musculus; NMuMG; cell count decreased by 50% compared to DMSO control; read-out: Tox IC50
[13] = NMuMG, TGFβ1 2 ng/ml plus compound, 4 days; parameter decreased by 50%
[14] = Mus musculus, 96 h; NMuMG, TGFβ1 2 ng/ml plus compound, 4 days; parameter decreased by 50%; read-out: FA IC50 (focal adhesion formation)
[15] = Mus musculus, 96 h; NMuMG, TGFβ1 2 ng/ml plus compound, 4 days; parameter decreased by 50%; read-out: FN IC50 (fibronectin patch formation)
[16] = Mus musculus, 96 h; NMuMG, TGFβ1 2 ng/ml plus compound, 4 days; parameter decreased by 50%; read-out: SF IC50 (stress fibers)
[17] = Mus musculus; NMuMG; mean of IC50 values obtained for FA, SF, FN; read-out: EMT (FA/SF/FN) combined IC50
[18] = Mus musculus; read-out: CCI IC50 (cell count increase)
[19] = Mus musculus; read-out: Emax (maximal effect on cell count)
[20] = Mus musculus, read-out: CCI IC50 (cell count increase)
[21] = Mus musculus, read-out: Emax (maximal effect on cell count)
[22] = Mus musculus, read-out: Tox IC50
[23] = read-out: PDGFRB IC50, ATP at apparent Km
[24] = read-out: TGFBR1 IC50, ATP at apparent Km
[25] = read-out: TGFBR2 IC50, ATP at apparent Km

Chain of PDGFRB (P09619 33-1106): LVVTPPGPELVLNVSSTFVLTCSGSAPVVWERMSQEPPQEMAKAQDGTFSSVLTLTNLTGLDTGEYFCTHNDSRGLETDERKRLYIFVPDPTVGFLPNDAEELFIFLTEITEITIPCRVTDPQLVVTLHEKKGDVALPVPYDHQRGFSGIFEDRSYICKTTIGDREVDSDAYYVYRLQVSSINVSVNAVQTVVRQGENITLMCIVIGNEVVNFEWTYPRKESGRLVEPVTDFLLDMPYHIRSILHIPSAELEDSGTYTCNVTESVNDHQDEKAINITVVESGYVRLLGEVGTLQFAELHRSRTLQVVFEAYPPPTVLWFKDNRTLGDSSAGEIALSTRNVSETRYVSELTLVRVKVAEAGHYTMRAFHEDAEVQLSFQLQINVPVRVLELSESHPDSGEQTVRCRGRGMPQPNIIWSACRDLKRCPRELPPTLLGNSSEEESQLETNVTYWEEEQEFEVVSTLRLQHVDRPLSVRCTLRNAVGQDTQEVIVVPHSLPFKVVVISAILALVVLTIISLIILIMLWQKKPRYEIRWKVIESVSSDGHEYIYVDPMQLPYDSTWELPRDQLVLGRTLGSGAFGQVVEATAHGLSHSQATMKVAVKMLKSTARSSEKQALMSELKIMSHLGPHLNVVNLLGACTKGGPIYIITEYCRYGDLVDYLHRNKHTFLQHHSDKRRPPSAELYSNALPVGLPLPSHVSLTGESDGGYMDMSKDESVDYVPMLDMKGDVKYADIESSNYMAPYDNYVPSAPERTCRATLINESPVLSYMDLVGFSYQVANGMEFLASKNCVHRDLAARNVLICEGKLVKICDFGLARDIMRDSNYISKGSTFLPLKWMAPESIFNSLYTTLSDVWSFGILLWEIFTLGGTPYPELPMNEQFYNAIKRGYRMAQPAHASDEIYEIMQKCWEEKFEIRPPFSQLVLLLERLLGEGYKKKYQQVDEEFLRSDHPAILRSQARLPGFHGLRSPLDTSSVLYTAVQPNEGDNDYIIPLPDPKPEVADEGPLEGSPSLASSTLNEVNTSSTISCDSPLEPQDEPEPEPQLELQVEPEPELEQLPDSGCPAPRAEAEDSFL
Chain of TGFBR2 (P37173 23-567): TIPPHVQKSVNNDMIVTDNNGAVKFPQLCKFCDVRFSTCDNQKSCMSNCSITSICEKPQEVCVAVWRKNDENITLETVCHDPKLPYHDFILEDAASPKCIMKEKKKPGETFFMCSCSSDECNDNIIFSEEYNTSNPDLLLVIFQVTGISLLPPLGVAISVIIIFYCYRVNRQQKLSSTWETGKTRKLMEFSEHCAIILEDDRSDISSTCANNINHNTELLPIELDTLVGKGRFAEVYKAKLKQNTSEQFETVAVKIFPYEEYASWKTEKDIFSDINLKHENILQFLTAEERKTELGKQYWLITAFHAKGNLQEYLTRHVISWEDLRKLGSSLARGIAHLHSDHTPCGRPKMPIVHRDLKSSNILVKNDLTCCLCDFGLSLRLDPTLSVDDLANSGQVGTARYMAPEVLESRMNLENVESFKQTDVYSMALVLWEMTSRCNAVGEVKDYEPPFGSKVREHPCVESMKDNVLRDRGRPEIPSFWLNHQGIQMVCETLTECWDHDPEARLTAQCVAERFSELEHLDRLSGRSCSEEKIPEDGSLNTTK
Chain of SRC (P12931 whole entry): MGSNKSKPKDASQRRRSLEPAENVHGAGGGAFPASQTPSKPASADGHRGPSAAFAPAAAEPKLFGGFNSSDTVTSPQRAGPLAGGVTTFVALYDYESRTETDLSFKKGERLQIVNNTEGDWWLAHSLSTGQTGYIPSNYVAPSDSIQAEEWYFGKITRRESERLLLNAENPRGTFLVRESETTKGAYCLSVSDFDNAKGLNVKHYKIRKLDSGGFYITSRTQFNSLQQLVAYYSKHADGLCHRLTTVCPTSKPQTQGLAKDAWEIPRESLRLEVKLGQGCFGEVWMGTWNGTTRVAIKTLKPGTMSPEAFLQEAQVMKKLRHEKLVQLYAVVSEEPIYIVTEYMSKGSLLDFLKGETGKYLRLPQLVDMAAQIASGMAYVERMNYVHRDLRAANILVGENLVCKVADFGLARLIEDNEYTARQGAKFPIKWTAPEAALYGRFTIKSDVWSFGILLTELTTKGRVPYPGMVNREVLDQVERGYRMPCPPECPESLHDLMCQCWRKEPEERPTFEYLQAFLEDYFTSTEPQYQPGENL
Chain of FGFR2 (P21802 22-821): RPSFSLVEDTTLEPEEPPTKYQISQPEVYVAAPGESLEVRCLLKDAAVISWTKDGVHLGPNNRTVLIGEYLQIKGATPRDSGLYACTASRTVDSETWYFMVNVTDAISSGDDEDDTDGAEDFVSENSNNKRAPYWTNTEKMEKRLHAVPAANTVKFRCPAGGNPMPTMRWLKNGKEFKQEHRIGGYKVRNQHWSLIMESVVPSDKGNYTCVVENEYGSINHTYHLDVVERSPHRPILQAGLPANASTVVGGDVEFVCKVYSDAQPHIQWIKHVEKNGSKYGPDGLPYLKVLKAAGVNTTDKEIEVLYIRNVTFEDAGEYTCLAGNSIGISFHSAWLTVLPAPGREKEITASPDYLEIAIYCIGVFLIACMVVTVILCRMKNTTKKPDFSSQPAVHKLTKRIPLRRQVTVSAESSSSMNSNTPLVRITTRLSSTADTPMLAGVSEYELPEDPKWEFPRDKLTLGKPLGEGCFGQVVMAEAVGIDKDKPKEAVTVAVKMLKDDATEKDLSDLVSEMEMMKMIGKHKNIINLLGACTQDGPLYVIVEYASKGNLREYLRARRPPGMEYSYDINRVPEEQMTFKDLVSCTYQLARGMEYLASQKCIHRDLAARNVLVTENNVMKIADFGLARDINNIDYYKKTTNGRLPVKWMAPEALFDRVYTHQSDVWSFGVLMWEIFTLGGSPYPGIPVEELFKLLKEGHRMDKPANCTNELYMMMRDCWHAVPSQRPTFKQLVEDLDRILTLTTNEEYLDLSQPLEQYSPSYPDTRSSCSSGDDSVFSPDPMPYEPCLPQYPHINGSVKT
Chain of ROCK2 (O75116 whole entry): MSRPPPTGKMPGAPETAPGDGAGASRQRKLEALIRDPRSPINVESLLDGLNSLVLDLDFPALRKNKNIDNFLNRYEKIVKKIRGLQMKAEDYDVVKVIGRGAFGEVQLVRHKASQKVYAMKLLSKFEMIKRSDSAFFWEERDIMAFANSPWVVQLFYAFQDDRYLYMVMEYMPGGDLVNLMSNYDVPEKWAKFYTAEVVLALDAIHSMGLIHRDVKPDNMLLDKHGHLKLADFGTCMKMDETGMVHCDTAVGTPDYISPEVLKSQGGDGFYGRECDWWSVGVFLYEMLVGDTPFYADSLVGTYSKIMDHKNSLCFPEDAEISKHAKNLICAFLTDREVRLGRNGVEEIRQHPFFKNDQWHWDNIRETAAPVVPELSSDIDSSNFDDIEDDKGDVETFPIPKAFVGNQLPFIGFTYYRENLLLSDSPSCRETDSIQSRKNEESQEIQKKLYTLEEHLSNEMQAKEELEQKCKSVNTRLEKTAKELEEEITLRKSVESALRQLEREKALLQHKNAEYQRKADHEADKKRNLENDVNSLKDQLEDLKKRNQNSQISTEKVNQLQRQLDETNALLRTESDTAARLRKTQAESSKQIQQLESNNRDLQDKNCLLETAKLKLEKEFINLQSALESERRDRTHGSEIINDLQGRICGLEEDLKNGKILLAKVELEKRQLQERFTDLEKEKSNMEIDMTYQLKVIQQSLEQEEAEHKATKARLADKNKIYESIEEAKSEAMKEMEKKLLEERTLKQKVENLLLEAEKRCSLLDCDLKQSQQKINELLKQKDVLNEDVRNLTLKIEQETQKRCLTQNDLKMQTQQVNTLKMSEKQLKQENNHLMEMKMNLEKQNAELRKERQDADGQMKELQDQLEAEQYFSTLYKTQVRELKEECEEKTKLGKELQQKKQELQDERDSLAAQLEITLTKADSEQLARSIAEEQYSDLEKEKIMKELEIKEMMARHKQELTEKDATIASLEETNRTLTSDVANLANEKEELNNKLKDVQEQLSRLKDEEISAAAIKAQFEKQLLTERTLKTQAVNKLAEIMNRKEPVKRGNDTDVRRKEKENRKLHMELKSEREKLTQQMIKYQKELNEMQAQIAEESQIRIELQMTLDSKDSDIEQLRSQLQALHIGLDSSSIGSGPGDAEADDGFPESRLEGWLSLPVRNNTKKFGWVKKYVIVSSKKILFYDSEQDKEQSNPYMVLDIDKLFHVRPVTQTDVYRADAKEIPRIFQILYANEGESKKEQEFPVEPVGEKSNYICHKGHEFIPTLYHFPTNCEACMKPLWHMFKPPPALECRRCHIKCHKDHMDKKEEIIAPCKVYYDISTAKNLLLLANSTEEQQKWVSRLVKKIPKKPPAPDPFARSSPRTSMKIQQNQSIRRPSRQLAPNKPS

## O=C(Nc1ccc(-c2cn[nH]c2)cc1)C1COc2ccccc2O1 (stereo not drawn) [Rho kinase inhibitor V]
NMuMG cells; [1]
  IC50: 0.425 µM
NMuMG cells; [2]
  IC50: 0.374 µM
NMuMG cells; [3]
  IC50: 0.571 µM
NMuMG cells; [4]
  IC50: 6.23 µM
NMuMG cells; [5]
  IC50: 0.106 µM
NMuMG cells; [6]
  Emax (maximal effect on cell count): 13.4%
NMuMG cells; [7]
  IC50: 0.457 µM
Py2T cells; [8]
  FA IC50 (focal adhesions): n.m.
  FN IC50 (fibronectin patches): n.m.
  SF IC50 (stress fibers): n.m.
Py2T cells; [9]
  IC50: 2.51 µM
Py2T cells; [10]
  IC50: 0.101 µM
Py2T cells; [11]
  Emax (maximal effect on cell count): 33.3%
ROCK
  IC50: 0.15 µM

## CCn1c(-c2nonc2N)nc2cnc(Oc3cccc(NC(=O)c4ccc(OCCN5CCOCC5)cc4)c3)cc21 [GSK269962]
Py2T cells; Py2T, TGFβ plus compound, 4 days; read-out: FA IC50 (focal adhesions)
  IC50: 0.002 µM
Py2T cells; Py2T, TGFβ plus compound, 4 days; read-out: FN IC50 (fibronectin patches)
  IC50: 0.005 µM
Py2T cells; Py2T, TGFβ plus compound, 4 days; read-out: SF IC50 (stress fibers)
  IC50: 0.002 µM
Py2T cells; [9]
  IC50: 0.564 µM
Py2T cells; [10]
  IC50: 0.0005 µM
Py2T cells; [11]
  Emax (maximal effect on cell count): 53%
ROCK
  IC50: < 0.003 µM

## CCN1CCN(c2ccc(Nc3cc(N(C)C(=O)Nc4c(Cl)c(OC)cc(OC)c4Cl)ncn3)cc2)CC1 [BGJ398]
NMuMG cells; [12]
  IC50: 1.5 µM
NMuMG cells; [13]
  FA IC50 (focal adhesion formation): n.m.
  FN IC50 (fibronectin patch formation): n.m.
  SF IC50 (stress fibers): n.m.
NMuMG cells; [6]
  Emax (maximal effect on cell count): n.m.
ROCK1
  IC50: > 10 µM
ROCK2
  IC50: > 10 µM
PDGFRB
  IC50: 7.43 µM
SRC
  IC50: 7.94 µM
TGFBR1
  IC50: > 10 µM
TGFBR2
  IC50: > 10 µM

## CN(C)CCOc1cc(-c2cn[nH]c2)ccc1NC(=O)C1COc2ccccc2O1 (stereo not drawn) [SR-3677]
NMuMG cells; [14]
  IC50: 0.16 µM
NMuMG cells; [15]
  IC50: 0.179 µM
NMuMG cells; [16]
  IC50: 0.031 µM
NMuMG cells; [12]
  IC50: > 25 µM
NMuMG cells; [17]
  IC50: 0.123 µM
NMuMG cells; [18]
  IC50: 0.0506 µM
NMuMG cells; [19]
  Emax: 34.7%
Py2T cells; Mus musculus, 96 h; Py2T, TGFβ plus compound, 4 days; read-out: FA IC50 (focal adhesions)
  IC50: 0.415 µM
Py2T cells; Mus musculus, 96 h; Py2T, TGFβ plus compound, 4 days; read-out: FN IC50 (fibronectin patches)
  IC50: 0.521 µM
Py2T cells; Mus musculus, 96 h; Py2T, TGFβ plus compound, 4 days; read-out: SF IC50 (stress fibers)
  IC50: 0.089 µM
Py2T cells; Mus musculus; Py2T; cell count decreased by 50% compared to DMSO control; read-out: Tox IC50
  IC50: 6.81 µM
Py2T cells; [18]
  IC50: 0.015 µM
Py2T cells; [19]
  Emax: 51%
ROCK2
  IC50: 0.076 µM

## CCn1c(-c2nonc2N)nc2cncc(C(=O)N3CC[C@H](N)C3)c21 [SB-772077B]
NMuMG cells; [14]
  IC50: 0.051 µM
NMuMG cells; [15]
  IC50: 0.054 µM
NMuMG cells; [16]
  IC50: 0.029 µM
NMuMG cells; [20]
  IC50: 0.0505 µM
NMuMG cells; [21]
  Emax: 30.5%
NMuMG cells; [12]
  IC50: 5.33 µM
NMuMG cells; [17]
  IC50: 0.0447 µM
Py2T cells; [20]
  IC50: 0.0284 µM
Py2T cells; [21]
  Emax: 63.6%
Py2T cells; [22]
  IC50: 1.96 µM
ROCK; Rattus norvegicus, 1.5 h
  IC50: 0.028 µM

## Cc1ccc2c(c1)C(=O)C1(O)CCN(c3ccccc3)C1=N2 (stereo not drawn) [Blebbistatin]
NMuMG cells; [1]
  IC50: 4.22 µM
NMuMG cells; [2]
  IC50: 2.55 µM
NMuMG cells; [3]
  IC50: 3.32 µM
NMuMG cells; [4]
  IC50: > 5.13 µM
NMuMG cells; [6]
  Emax (maximal effect on cell count): 29.4%
NMuMG cells; [7]
  IC50: 3.36 µM
SRC; read-out: SRC IC50, ATP at apparent Km
  IC50: 4.37 µM

## Cc1ccc(-c2nn(C(C)(C)C)c3ncnc(N)c23)cc1 [PP1]
NMuMG cells; [1]
  IC50: 0.91 µM
NMuMG cells; [2]
  IC50: 1.52 µM
NMuMG cells; [3]
  IC50: 1.14 µM
NMuMG cells; [4]
  IC50: 11.4 µM
NMuMG cells; [5]
  IC50: 0.374 µM
NMuMG cells; [6]
  Emax (maximal effect on cell count): 22.3%
NMuMG cells; [7]
  IC50: 1.19 µM
FGFR2
  IC50: 0.456 µM
FGFR4
  IC50: 0.622 µM
PDGFRA
  IC50: 3.69 µM
PDGFRB; [23]
  IC50: 0.132 µM
TGFBR1; [24]
  IC50: 0.297 µM
TGFBR2; [25]
  IC50: 1.31 µM

## O=S(=O)(c1cccc2cnccc12)N1CCCNCC1 [Fasudil]
NMuMG cells; [20]
  IC50: 2.87 µM
NMuMG cells; Mus musculus, read-out: EMT (FA/SF/FN) combined IC50
  IC50: 3.02 µM
NMuMG cells; [21]
  Emax: 28.2%
NMuMG cells; [22]
  IC50: > 25 µM
Py2T cells; [20]
  IC50: 1.68 µM
Py2T cells; [21]
  Emax: 53.6%
Py2T cells; [22]
  IC50: > 25 µM

## Cc1[nH]c(/C=C2\C(=O)Nc3ccccc32)c(C)c1CCC(=O)O [TSU-68]
NMuMG cells; [1]
  IC50: > 10 µM
NMuMG cells; [2]
  IC50: > 10 µM
NMuMG cells; [3]
  IC50: > 10 µM
NMuMG cells; [4]
  IC50: > 10 µM
NMuMG cells; [5]
  IC50: > 10 µM
NMuMG cells; [6]
  Emax (maximal effect on cell count): 1.7%
ROCK
  IC50: > 10 µM
FGFR2
  IC50: 0.59 µM
PDGFRA
  IC50: 0.0782 µM
PDGFRB; [23]
  IC50: 0.103 µM
TGFBR1; [24]
  IC50: > 10 µM
TGFBR2; [25]
  IC50: > 10 µM

## COc1cc([C@@H]2c3cc4c(cc3[C@@H](O[C@@H]3O[C@@H]5CO[C@@H](C)O[C@H]5[C@H](O)[C@H]3O)[C@H]3COC(=O)[C@H]23)OCO4)cc(OC)c1O [Etoposide]
NMuMG cells; [12]
  IC50: 1.17 µM
NMuMG cells; [13]
  FA IC50 (focal adhesion formation): n.m.
  FN IC50 (fibronectin patch formation): n.m.
  SF IC50 (stress fibers): n.m.
NMuMG cells; [6]
  Emax (maximal effect on cell count): n.m.

## Cc1nc(Nc2ncc(C(=O)Nc3c(C)cccc3Cl)s2)cc(N2CCN(CCO)CC2)n1 [Dasatinib]
NMuMG cells; [12]
  IC50: 0.0509 µM
NMuMG cells; [13]
  FA IC50 (focal adhesion formation): n.m.
  FN IC50 (fibronectin patch formation): n.m.
  SF IC50 (stress fibers): n.m.
NMuMG cells; [6]
  Emax (maximal effect on cell count): n.m.

## COc1cc2c(Nc3ccc(Br)cc3F)ncnc2cc1OCC1CCN(C)CC1 [Vandetanib]
NMuMG cells; [12]
  IC50: 0.208 µM
NMuMG cells; [13]
  FA IC50 (focal adhesion formation): n.m.
  FN IC50 (fibronectin patch formation): n.m.
  SF IC50 (stress fibers): n.m.
NMuMG cells; [6]
  Emax (maximal effect on cell count): n.m.
